Reference: patent US9320743B2, “Use of 5α-androstane-3β,5,6β-triol in preparation of neuroprotective drugs” (GUANGZHOU CELLPROTEK PHARMACEUTICAL LTD., priority 2010, dated 2016)

Columns and labels:
Format in all cases: cell-based, rat
[1] = test system: cerebellar granule neurons; assay: Glutamate-induced excitotoxicity of cerebellar granule neurons; conditions: 200 μM glutamate, 24 hours
Method: Cerebella with meninges and blood vessels removed were obtained from 7-8 days old rats weighted 15-20 g. 0.05 g/L DNase I was used to pipette the cell to single cell suspension following 0.25 g/L trypsin digestion. The suspension was then centrifuged to collect precipitation and resuspended with BME medium containing 10% (v/v) FBS and 25 mM KCl. The cells were then seeded on dishes pre-coated with poly-lysine. 24 hours following the seeding, 10 μM Ara-C was added to inhibit growth and proliferation of non-neuron cells, such that the cerebellar granule neurons have purity not less than 95%. Glucose was added during culture to provide supplementary energy for cellular metabolism. Experiments were carried out at 8 DIV.
(§1) The cerebellar granule neurons cultured for 8 days were divided into four groups: control group, glutamate group, MK801+glutamate group, and YC-6+glutamate group. The control group received no treatment. The glutamate group was treated with 200 μM glutamate. The MK801 group and the YC-6 group were pre-treated with MK801 (10 μM) and YC-6 with different concentrations, respectively, followed by incubation at 37° C. for 30 minutes, then glutamate was added. After 24 hours, phase contrast microscope was used to observe neuronal morphologies. The cells were stained by FDA and observed under inverted fluorescent microscope for cell counting to calculate survival rate of neurons. The activity of lactate dehydrogenase (LDH) was also determined for each group. Survival Rate=Number of live cells for each group/Number of live cells in the control group*100%

[2] = test system: spinal motor neurons; assay: Glutamate-induced excitotoxicity of spinal motor neurons; conditions: 24 hours, pre-treated 30 minutes, MK801 10 μM, YC-6 different concentrations
Method: Spinal cord was obtained from 15-day pregnant SD rats. The cristae membrane and blood film were removed. The spinal cord tissues of fetal rats is digested with 0.125% trypsin and then centrifuged to collect intermediate layer enriched with motor neurons. Cell debris were removed by centrifugation and cells were adhered by differential velocity adherent technique for 1 h. Suspending spinal motor neurons with slower adhering velocity were collected and seeded. 24 hours following the seeding, Ara-C was added. The Culture medium was replaced on the 3 DIV with L-15 serum free medium, followed by half medium change every 2˜3 days. Experiments were carried out on the 3-5 DIV.
The primary cultured spinal motor neurons at 5 DIV were divided into four groups: control group, glutamate group, MK801+glutamate group, and YC-6+glutamate group. The control group received no treatment. The glutamate group was treated with […] glutamate. The MK801 group and the YC-6 group were pre-treated with MK801 (10 μM) and YC-6 with different concentrations, respectively, followed by incubation at 37° C. for 30 minutes, then glutamate was added. After 24 hours, phase contrast microscope was used to observe neuronal morphologies. […] The activity of lactate dehydrogenase (LDH) was also determined for each group. […]

[3] = test system: cortical neurons; assay: Glutamate-induced excitotoxicity of cortical neurons; conditions: 200 μM glutamate, 24 hours
Method: (§2) Cortex with meninges and blood vessels removed were obtained from newborn (1-day old) rats. 0.05 g/L DNase I was used to pipette the cell to single cell suspension following 0.25 g/L trypsin digestion. The suspension was then centrifuged to collect precipitation and diluted it with DMEM-F12 medium containing 5% (v/v) FBS and 2% B27. The cell was seeded on dishes pre-coated with poly-lysine. 24 hours following the seeding, 10 μM Ara-C was added to inhibit growth and proliferation of non-neuron cells. Half medium change was performed 2-3 times per week. Experiments were carried out on the 10 DIV.
as §1, with “primary cultured cortical” for “cerebellar granule”, “at 10 DIV” for “cultured for 8 days”, “nM)” for “μM)”

[4] = test system: cortical neurons; assay: Hypoxia-induced damage of cortical neurons; conditions: hypoxia 1% oxygen, 12 hours; pretreated 30 min, MK801 10 μM, YC-6 different concentrations; compared with the control group
Method: as §2
The primary cultured cortical neurons at 10 DIV were divided into four groups: control group, hypoxia group, MK801+ hypoxia group, and YC-6+ hypoxia group. 3 duplicates wells were provided for each group. The control group was incubated in CO2 normoxic incubator. […]
The treatment was performed in 96-well plates. […] The crystals were dissolved after half an hour and OD value was detected at 570 nm wavelength by Microplates-Reader. 50 μL of culture medium was obtained from all groups at different time points and LDH release was determined for each well according to the supplier's instructions. Data were presented as the mean±SD, one-way ANOVA and statistically analyzed using paired-samples t-test and analysis of variance among means of multiple samples. […]

Structure (SMILES): C[C@]12N[C@H](Cc3ccccc31)c1ccccc12 [MK801]
- survival rate of neurons ([1]; FDA staining, pre-treated 30 minutes, MK801 10 μM, YC-6 different concentrations, vs glutamate group): increased survival rate
- neuronal morphology (phase contrast microscope) ([1]; majority of neurons): maintain the integrity of soma and processes
- LDH release ([1]; pre-treated 30 minutes, MK801 10 μM, YC-6 different concentrations, vs glutamate group): decreased LDH release
- number of spinal motor neurons (phase contrast microscope) [2]: significantly increased
- survival rate of neurons ([3]; FDA staining, pre-treated 30 minutes, MK801 10 nM, YC-6 different concentrations, vs glutamate group): increased survival rates
- neuronal morphology (phase contrast microscope) ([3]; a great number of neurons): maintained intact soma and neurites
- LDH release ([3]; pre-treated 30 minutes, MK801 10 nM, YC-6 different concentrations, vs glutamate group): decreased LDH release
- morphology of cortical neuronal cells [4]: no difference in morphology
